Experiment [1] addresses T1, OYE3 (Saccharomyces cerevisiae, UniProt P41816).
T1 construct: made in house; host or cells: E. coli BL21(DE3)
Briefly: Reactivity screening of oximes with purified ene-reductase, conversion by GC-FID. As to conditions: OYE3 100 µg/ml, 10 mM Oxim, 0,5 mM NAD(P)H/H+, Glucose/GDH, Tris-HCl pH 7,5, 30 °C, 24 h. It counts as biochemical. The source says: (§1) Die En-Reduktase ist zwar nicht speziell eingeschränkt, ist aber vorzugsweise aus der OYE-Familie, d.h. der Familie der "Old Yellow Enzymes" ausgewählt, da Vertreter dieser Gruppe von Enzymen allesamt gute Ergebnisse geliefert haben. Noch bevorzugter ist die ER aus den folgenden bereits getesteten Enzymen ausgewählt: • OYE1 von Saccharomyces pastorianus, • OYE2 von Saccharomyces cerevisiae, • OYE3 von Saccharomyces cerevisiae, • 12-Oxophytodienoat-Reduktase 3 (OPR3) von Arabidopsis thaliana, • xenobiotischer Reduktase A (XenA) von Pseudomonas putida II-B und • En-Reduktase von Ferrovum sp. JA12 (FOYE).
(§2) Plasmide, die jeweils ein für eine der En-Reduktasen OYE1, OYE2, OYE3, OPR3, XenA und FOYE kodierendes Gen enthielten, wurden in chemisch kompetente E. coli BL21(DE3)-Zellen transformiert. Die sechs Über-Nacht-Kulturen wurden in LB-Medium, das mit 50 µg/ml Kanamycin (für OYE1-3 und FOYE) oder 100 µg/ml Ampicillin (für OPR3 und XenA) ergänzt worden war, bei 30 °C und 120 U/min kultiviert. Hauptkulturen (1 l LB-Medium, 50 µg/ml Kanamycin oder 100 µg/ml Ampicillin) wurden mit je 3 ml der entsprechenden Über-Nacht-Kultur inokuliert und bei 37 °C, 120 U/min geschüttelt, bis die OD600 0,6 bis 0,8 erreichte. Die Proteinproduktion wurde durch Zusatz von Isopropyl-β-D-thiogalactopyranosid (IPTG) (0,2 mM für OYE1-3 und XenA, 1 mM für OPR3 und 0,05 mM für FOYE) induziert und bei 20 °C über Nacht (für OYE1-3 und FOYE) oder bei 37 °C 4 h lang (für XenA und OPR3) geschüttelt. Die Zellen wurden durch Zentrifugation (5000 U/min, 4 °C, 20 min) geerntet, das Pellet wurde mit 100 mM Tris-HCI-Puffer pH 7,5 (25 ml) gewaschen und bei -20 °C gelagert.
(§3) Als Modellreaktion für die Feststellung der Enzymaktivität wurde im Handel erhältlicher 2-Oximinoacetessigsäureethylester (1a) mit den sechs in den Synthesebeispielen 1 bis 6 hergestellten En-Reduktasen (ER) in analytischem Maßstab umgesetzt. Dazu wurden in ein 2-ml-Eppendorf-Röhrchen 100 µg/ml der jeweiligen gereinigten En-Reduktase, 0,5 mM NAD(P)H/H^+, 50 mM Glucose und 1 mg/ml GDH in 100 mM Tris-HCl-Puffer, pH 7,5, gelöst. Die Reaktionen wurden durch Zugabe von 10 mM Oxim (1a) (aus einer 200 mM Stammlösung in DMSO) auf ein Endvolumen von 500 µl gestartet und 24 h lang bei 30 °C, 120 U/min geschüttelt. Danach wurden die Reaktionsgemische jeweils mit 1 ml Chloroform extrahiert, die organische Phase wurde über MgSO4 getrocknet und mittels GC-FID analysiert und der Umsatz anhand der Peakflächenprozentsätze ermittelt. Wie aus nachstehender Tabelle 1 hervorgeht, wurde nach 24 h in allen sechs Fällen praktisch vollständiger Umsatz festgestellt. Tabelle 1: Anfängliches Reaktivitätsscreening mit Modelloxim (1a)
(§4) Zur Ermittlung, welche anderen Derivate der 2-Oximinoacetessigsäure mittels enzymatischer Katalyse durch die sechs in den Synthesebeispielen 1 bis 6 hergestellten En-Reduktasen (1) zu Pyrazindicarbonsäure-Derivaten (2) umsetzbar sein würden, wurden die für die Beispiele 1 bis 6 beschriebene Vorgangsweise unter Verwendung der in den Synthesebeispielen 7 bis 13 hergestellten Oxime (1b) bis (1h) anstelle von (1a) wiederholt. Überraschenderweise wurde in sämtlichen Fällen nach 24 h praktisch vollständiger Umsatz beobachtet, wie aus nachstehender Tabelle 2 hervorgeht. Tabelle 2: Reaktivitätsscreening mit den Oximen (1b) bis (1h)

Experiment [2] deals with T2, OPR3 (Arabidopsis thaliana, UniProt Q9FUP0).
T2 construct: made in house; host or cells: E. coli BL21(DE3)
The description is as above. The format is biochemical. As to conditions: OPR3 100 µg/ml, 10 mM Oxim, 0,5 mM NAD(P)H/H+, Glucose/GDH, Tris-HCl pH 7,5, 30 °C, 24 h.
Text: as §1, §2, §3, §4

In experiment [3] the target is T3, OYE2 (Saccharomyces cerevisiae, UniProt Q03558).
T3 construct: made in house; host or cells: E. coli BL21(DE3)
The description is as above. It counts as biochemical. As to conditions: OYE2 100 µg/ml, 10 mM Oxim, 0,5 mM NAD(P)H/H+, Glucose/GDH, Tris-HCl pH 7,5, 30 °C, 24 h.
Text: as §1, §2, §3, §4

In experiment [4] the target is T4, OYE1 (Saccharomyces pastorianus, UniProt Q02899).
T4 construct: made in house; host or cells: E. coli BL21(DE3)
Described as above. It counts as biochemical. As to conditions: OYE1 100 µg/ml, 10 mM Oxim, 0,5 mM NAD(P)H/H+, Glucose/GDH, Tris-HCl pH 7,5, 30 °C, 24 h.
Text: as §1, §2, §3, §4

Experiment [5] deals with XenA. The experiment is described as above. As to conditions: XenA 100 µg/ml, 10 mM Oxim, 0,5 mM NAD(P)H/H+, Glucose/GDH, Tris-HCl pH 7,5, 30 °C, 24 h. It counts as biochemical, Pseudomonas putida II-B.
Text: as §1, §2, §3, §4

Experiment [6] has as its system FOYE. The description is as above. The format is biochemical, Ferrovum sp. JA12. As to conditions: FOYE 100 µg/ml, 10 mM Oxim, 0,5 mM NAD(P)H/H+, Glucose/GDH, Tris-HCl pH 7,5, 30 °C, 24 h.
Text: as §1, §2, §3, §4

Experiment [7] deals with FOYE. Briefly: Photometric activity measurement by consumption of coenzyme NAD(P)H/H+ with diketone oximes. It counts as biochemical, Ferrovum sp. JA12. An excerpt: Zur Untersuchung, ob die enzymatische Katalyse auch mit 2-Oximino-1,3-diketonen anstelle der 2-Oximinoacetessigsäure-Derivate als Substrate abläuft, d.h. ob das Carbonsäure-Ende des Substratmoleküls für die Reaktion erforderlich ist, wurden die drei nachstehend dargestellten Diketon-Oxime (3a), (3b) und (3c) [drawing 12] auf analoge Weise zu den obigen Synthesebeispielen 7 bis 13 aus den entsprechenden Diketon-Ausgangsprodukten (Acetylaceton, ω-Acetylacetophenon und 1-Isopropylacetylaceton) hergestellt und auf analoge Weise zu den obigen Beispielen 7 und 8 mit FOYE als En-Reduktase umgesetzt.
Während der Reaktionen wurden photometrische Aktivitätsmessungen durchgeführt, bei denen die Enzymaktivität anhand des Verbrauchs des Coenzyms NAD(P)H/H^+ bestimmt wurde. Die Ergebnisse sind in nachstehender Tabelle 3 angeführt. Tabelle 3: Reaktivitätsscreening mit den Diketon-Oximen (3a) bis (3c)

T3 sequence (Q03558 whole entry): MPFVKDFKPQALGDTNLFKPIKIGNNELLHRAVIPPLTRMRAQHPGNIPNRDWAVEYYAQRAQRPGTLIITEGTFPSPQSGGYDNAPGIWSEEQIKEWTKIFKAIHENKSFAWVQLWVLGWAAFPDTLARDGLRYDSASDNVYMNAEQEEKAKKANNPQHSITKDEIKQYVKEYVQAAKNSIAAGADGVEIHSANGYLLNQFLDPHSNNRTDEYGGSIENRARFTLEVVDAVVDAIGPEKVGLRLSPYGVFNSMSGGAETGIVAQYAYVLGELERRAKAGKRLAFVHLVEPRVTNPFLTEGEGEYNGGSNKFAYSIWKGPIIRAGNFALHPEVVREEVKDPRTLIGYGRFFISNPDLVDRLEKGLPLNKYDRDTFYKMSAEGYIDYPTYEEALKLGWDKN
T1 sequence (P41816 whole entry): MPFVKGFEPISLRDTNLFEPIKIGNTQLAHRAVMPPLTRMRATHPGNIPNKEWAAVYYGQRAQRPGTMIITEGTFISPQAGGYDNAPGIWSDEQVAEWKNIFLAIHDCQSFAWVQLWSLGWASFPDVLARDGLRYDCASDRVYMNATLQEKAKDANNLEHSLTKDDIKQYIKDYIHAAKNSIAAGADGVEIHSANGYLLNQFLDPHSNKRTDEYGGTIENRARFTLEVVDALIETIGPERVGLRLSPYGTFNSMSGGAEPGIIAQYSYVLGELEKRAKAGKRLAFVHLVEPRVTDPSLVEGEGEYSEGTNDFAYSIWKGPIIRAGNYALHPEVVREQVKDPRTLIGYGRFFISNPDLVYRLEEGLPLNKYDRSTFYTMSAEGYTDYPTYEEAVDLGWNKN
T2 sequence (Q9FUP0 whole entry): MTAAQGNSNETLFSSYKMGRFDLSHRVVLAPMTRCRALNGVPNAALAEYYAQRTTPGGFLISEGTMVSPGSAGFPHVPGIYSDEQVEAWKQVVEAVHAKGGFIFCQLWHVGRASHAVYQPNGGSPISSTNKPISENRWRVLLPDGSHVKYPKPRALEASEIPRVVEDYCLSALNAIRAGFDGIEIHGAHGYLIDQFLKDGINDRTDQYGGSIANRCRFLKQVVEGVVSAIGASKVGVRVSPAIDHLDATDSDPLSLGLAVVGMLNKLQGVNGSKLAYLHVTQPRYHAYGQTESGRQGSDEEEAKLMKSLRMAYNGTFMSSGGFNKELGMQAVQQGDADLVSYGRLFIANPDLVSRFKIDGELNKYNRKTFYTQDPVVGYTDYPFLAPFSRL
T4 sequence (Q02899 whole entry): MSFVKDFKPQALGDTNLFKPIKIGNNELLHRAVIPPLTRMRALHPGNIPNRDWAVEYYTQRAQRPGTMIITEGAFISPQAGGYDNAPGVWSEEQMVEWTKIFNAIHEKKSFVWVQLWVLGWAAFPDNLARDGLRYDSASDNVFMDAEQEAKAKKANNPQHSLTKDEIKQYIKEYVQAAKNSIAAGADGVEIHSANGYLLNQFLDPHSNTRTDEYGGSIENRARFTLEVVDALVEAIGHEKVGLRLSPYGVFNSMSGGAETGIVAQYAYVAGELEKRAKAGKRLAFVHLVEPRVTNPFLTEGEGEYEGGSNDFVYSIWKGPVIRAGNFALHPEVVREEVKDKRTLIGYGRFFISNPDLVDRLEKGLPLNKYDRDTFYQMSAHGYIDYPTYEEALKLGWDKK

As to `CCOC(=O)C(=NO)C(C)=O` [(1a), 2-Oximinoacetessigsäureethylester, reference compound], the Umsatz in experiment [1], in experiment [2], in experiment [3], in experiment [4], in experiment [5] and in experiment [6] was over 99% each time.

Regarding `CC(=O)C(=NO)C(=O)Nc1ccccc1` [(1b), 2-Oximinoacetessigsäure-N-phenylamid], the Umsatz in experiment [1], in experiment [2], in experiment [3], in experiment [4], in experiment [5] and in experiment [6] was over 99% throughout.

In the case of `C=CCOC(=O)C(=NO)C(C)=O` [(1c), 2-Oximinoacetessigsäureallylester], the Umsatz in experiment [1], in experiment [2], in experiment [3], in experiment [4], in experiment [5] and in experiment [6] was over 99% in each case.

Turning to `CCCCOC(=O)C(=NO)C(C)=O` [(1d), 2-Oximinoacetessigsäurebutylester], the Umsatz in experiment [1], in experiment [2], in experiment [3], in experiment [4], in experiment [5] and in experiment [6] was over 99% each time.

As to `CC(=O)C(=NO)C(=O)OCc1ccccc1` [(1e), 2-Oximinoacetessigsäurebenzylester], the Umsatz in experiment [1], in experiment [2], in experiment [3], in experiment [4], in experiment [5] and in experiment [6] was over 99% throughout.

As to `CCCCCCCOC(=O)C(=NO)C(C)=O` [(1f), 2-Oximinoacetessigsäureheptylester], the Umsatz in experiment [1], in experiment [2], in experiment [3], in experiment [4], in experiment [5] and in experiment [6] was over 99% throughout.

With `COCCOC(=O)C(=NO)C(C)=O` [(1g), 2-Oximinoacetessigsäure-2-methoxyethylester], the Umsatz in experiment [1], in experiment [2], in experiment [3], in experiment [4], in experiment [5] and in experiment [6] was over 99% throughout.

As to `CCOC(=O)C(=NO)C(=O)CC` [(1h), 4-Methyl-2-oximinoacetessigsäureethylester], the Umsatz in experiment [1], in experiment [2], in experiment [3], in experiment [4], in experiment [5] and in experiment [6] was over 99% in each case.

Take `CC(=O)C(=NO)C(C)=O` [Oxim 3a, 3-Oximinoacetylaceton]: the Aktivität in experiment [7] is given as 6 U/mg.

The compound `CC(=O)C(=NO)C(=O)c1ccccc1` [Oxim 3b, α-Acetyl-α-oximinoacetophenon] registered an Aktivität in experiment [7] of 18 U/mg.

The compound `CC(=O)C(=NO)C(=O)CC(C)C` [Oxim 3c, 1-Isopropyl-3-oximinoacetylaceton] registered an Aktivität in experiment [7] of 23 U/mg.

Source of the values: patent EP3569594A1, “METHOD FOR THE PREPARATION OF SUBSTITUTED PYRAZINES” (Universität Graz, priority 2018, dated 2019).
